What was measured:
[1] = test system: human peripheral blood mononuclear cells (responder and irradiated stimulator cells); test: Mixed lymphocyte reaction (MLR), ^3HT incorporation; format: cell-based; settings: Table 19, R × S, R6-5-D6 8 ng/ml, Dex 50 ng/ml
[2] = test system: JY cells (LFA-1 dependent aggregation); test: Qualitative aggregation assay (microtiter plate), PMA-induced JY cell aggregation; format: cell-based, human
Protocol: In order to assess the extent of cellular adhesion, aggregation assays were employed. Cell lines used in such assays were washed two times with RPMI 1640 medium containing 5 mM Hepes buffer (Sigma Chemical Co., St. Louis) and resuspended to a concentration of 2×10^6 cells/ml. Added to flat-bottomed, 96-well microtiter plates (No. 3596; Costar, Cambridge, Mass.) were 50 μl of appropriate monoclonal antibody supernatant or 50 μl of complete medium with or without purified monoclonal antibodies, 50 μl of complete medium containing 200 ng/ml of the phorbol ester phorbol myristate acetate (PMA) and 100 μl of cells at a concentration of 2×10^6 cells/ml in complete medium. This yielded a final concentration of 50 ng/ml PMA and 2×10^5 cells/well. Cells were allowed to settle spontaneously, and the degree of aggregation was scored at various time points. […] In order to obtain a more quantitative estimate of cellular adhesion, reagents and cells were added to 5 ml polystyrene tubes in the same order as above. Tubes were placed in a rack on a gyratory shaker at 37° C. After 1 hour at approximately 200 rpm, 10 μl of the cell suspension was placed in a hemocytometer and the number of free cells was quantitated. Percent aggregation was determined by the following equation: […]
The qualitative aggregation assay described in Example 2 was performed using the Epstein-Barr transformed cell line JY. […]

ICAM-1-LFA-1 adhesion = ICAM-1-LFA-1 adhesion (Homo sapiens, UniProt P05107+P05362+P20701); settings: peptides; cited from earlier work
Chain of ICAM-1-LFA-1 adhesion (P20701 26-1170, one chain of several): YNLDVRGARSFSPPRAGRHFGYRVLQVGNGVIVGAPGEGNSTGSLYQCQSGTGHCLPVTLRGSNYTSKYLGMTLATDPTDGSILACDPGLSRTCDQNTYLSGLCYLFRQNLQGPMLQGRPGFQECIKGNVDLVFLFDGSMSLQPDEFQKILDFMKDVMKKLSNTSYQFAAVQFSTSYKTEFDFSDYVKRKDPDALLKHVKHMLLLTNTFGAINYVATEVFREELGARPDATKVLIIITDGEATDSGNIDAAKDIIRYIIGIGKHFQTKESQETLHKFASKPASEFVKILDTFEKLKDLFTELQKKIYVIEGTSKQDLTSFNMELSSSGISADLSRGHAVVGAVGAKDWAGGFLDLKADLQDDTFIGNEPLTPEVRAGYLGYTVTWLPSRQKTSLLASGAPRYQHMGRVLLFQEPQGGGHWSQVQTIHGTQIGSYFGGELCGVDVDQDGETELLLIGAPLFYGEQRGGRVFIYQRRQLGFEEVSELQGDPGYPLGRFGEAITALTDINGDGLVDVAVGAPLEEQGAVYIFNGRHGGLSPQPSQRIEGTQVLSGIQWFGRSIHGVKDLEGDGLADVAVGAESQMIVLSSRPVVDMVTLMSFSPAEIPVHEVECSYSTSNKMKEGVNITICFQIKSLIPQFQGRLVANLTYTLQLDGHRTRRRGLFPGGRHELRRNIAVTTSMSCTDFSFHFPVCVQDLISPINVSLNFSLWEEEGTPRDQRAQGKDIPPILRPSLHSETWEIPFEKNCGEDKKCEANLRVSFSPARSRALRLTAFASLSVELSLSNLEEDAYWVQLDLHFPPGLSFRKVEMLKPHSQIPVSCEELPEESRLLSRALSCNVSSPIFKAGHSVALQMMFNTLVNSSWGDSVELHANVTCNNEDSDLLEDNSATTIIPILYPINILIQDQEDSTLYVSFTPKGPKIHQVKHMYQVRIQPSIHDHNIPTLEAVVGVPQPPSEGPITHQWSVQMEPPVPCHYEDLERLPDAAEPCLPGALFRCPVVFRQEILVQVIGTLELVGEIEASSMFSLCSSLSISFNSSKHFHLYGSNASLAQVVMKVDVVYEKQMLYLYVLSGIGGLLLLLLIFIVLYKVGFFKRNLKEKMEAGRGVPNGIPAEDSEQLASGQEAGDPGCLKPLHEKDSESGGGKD
Chain of ICAM-1-LFA-1 adhesion (P05107 23-769, one chain of several): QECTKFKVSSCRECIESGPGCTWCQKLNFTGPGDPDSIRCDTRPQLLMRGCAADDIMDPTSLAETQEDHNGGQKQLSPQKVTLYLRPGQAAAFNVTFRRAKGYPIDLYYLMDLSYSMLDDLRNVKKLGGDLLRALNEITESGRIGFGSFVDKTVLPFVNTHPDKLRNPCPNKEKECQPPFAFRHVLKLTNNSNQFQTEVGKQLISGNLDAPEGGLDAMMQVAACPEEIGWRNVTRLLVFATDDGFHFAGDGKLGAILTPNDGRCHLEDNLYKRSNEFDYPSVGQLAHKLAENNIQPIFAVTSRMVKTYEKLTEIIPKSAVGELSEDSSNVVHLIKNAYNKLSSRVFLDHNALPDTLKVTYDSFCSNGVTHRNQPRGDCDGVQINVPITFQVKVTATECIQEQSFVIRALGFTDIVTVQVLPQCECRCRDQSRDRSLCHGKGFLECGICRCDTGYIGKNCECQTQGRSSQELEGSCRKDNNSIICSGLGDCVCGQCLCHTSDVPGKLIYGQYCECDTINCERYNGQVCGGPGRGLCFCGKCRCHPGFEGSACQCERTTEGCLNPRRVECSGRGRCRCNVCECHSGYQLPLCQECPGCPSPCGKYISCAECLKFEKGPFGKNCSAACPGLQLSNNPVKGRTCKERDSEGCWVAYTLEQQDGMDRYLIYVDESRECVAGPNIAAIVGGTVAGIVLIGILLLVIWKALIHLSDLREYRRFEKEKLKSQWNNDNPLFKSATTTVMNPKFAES

LFA-1 on SKW-3 cells = target: T1, LFA-1 on SKW-3 cells (Homo sapiens, UniProt P05107+P20701); test: SKW-3 cell binding to ICAM-1 bound to plastic (solid phase); format: cell-based; settings: purified protein bound to 96-well plates
T1 construct: SKW-3 cells bearing LFA-1 on their surface; endogenous in cells; host or cells: SKW-3 T-lymphoma cells
T1 sequence (P20701 26-1170): as the sequence (P20701 26-1170, one chain of several) above
T1 sequence (P05107 23-769): as the sequence (P05107 23-769, one chain of several) above
Description: The truncated ICAM-1 secreted from transfected cells was purified by immunoaffinity chromatography with an ICAM-1 specific antibody (R6-5-D6) and tested for functional activity in a cell binding assay. […] These preparations of ICAM-1 were allowed to bind to the surfaces of plastic 96-well plates (Nunc), to produce ICAM-1 bound to a solid-phase. After washing out unbound material, approximately 75-80% and 83-88% of SKW-3 cells bearing LFA-1 on their surface bound specifically to the native and to the truncated forms of ICAM-1, respectively.

HRV14 = test: Binding of [^35S]-Met labeled HRV14 to COS cells expressing ICAM-1 mutants; format: cell-based, human rhinovirus 14
LFA-1 = target: T2, LFA-1 (Homo sapiens, UniProt P05107+P20701); test: Adherence of COS cells expressing ICAM-1 or ICAM-1 mutants to plastic-bound purified LFA-1; format: cell-based
T2 construct: endogenous in cells
T2 sequence (P20701 26-1170): as the sequence (P20701 26-1170, one chain of several) above
T2 sequence (P05107 23-769): as the sequence (P05107 23-769, one chain of several) above

With `C[C@@H]1C[C@H]2[C@@H]3CCC4=CC(=O)C=C[C@]4(C)[C@@]3(F)[C@@H](O)C[C@]2(C)[C@@]1(O)C(=O)CO` [Dex, Dexamethasone] the inhibition at 0.05 µg/mL ([1]; Homo sapiens, PBMC) was 59% and the “^3HT Incorporation (CPM)” value ([1]; no inhibitor 34,199) was 14,158 CPM.

With `[Mg]` [magnesium] the “lowest concentration supporting PMA-induced JY cell aggregation” value ([2]; 1.25 mM calcium ions added to the medium) was 0.02 millimolar and the “lowest concentration supporting PMA-induced JY cell aggregation” value ([2]; medium free of calcium ions) was 0.3 mM.

For GRGDSP, the “inhibition of ICAM-1-LFA-1 adhesion” value (ICAM-1-LFA-1 adhesion) is given as “failure”.

In the case of GRGESP, the “inhibition of ICAM-1-LFA-1 adhesion” value (ICAM-1-LFA-1 adhesion) is given as “failure”.

B1: Native ICAM-1: native (wild-type) Intercellular Adhesion Molecule-1, purified or expressed in COS cells (protein, UniProt P05362 28-532, looked up)
Intercellular adhesion …: QTSVSPSKVILPRGGSVLVTCSTSCDQPKLLGIETPLPKKELLLPGNNRKVYELSNVQEDSQPMCYSNCPDGQSTAKTFLTVYWTPERVELAPLPSWQPVGKNLTLRCQVEGGAPRANLTVVLLRGEKELKREPAVGEPAEVTTTVLVRRDHHGANFSCRTELDLRPQGLELFENTSAPYQLQTFVLPATPPQLVSPRVLEVDTQGTVVCSLDGLFPVSEAQVHLALGDQRLNPTVTYGNDSFSAKASVSVTAEDEGTQRLTCAVILGNQSQETLQTVTIYSFPAPNVILTKPEVSEGTEVTVKCEAHPRAKVTLNGVPAQPLGPRAQLLLKATPEDNGRSFSCSATLEVAGQLIHKNQTRELRVLYGPRLDERDCPGNWTWPENSQQTPMCQAWGNPLPELKCLKDGTFPLPIGESVTVTRDLEGTYLCRARSTQGEVTRKVTVNVLSPRYEIVIITVVAAAVIMGTAGLSTYLYNRQRKIKKYRLQQAQKGTPMKPNTQATPP
For B1, the “SKW-3 cells bound specifically to plastic-bound ICAM-1” value (LFA-1 on SKW-3 cells) was 75-80%, the “Percent of [^35S] methionine-labeled HRV-14 which bound to COS cells, mean” value (HRV14) was 21% and the “Percent of [^35S] methionine-labeled HRV-14 which bound to COS cells, range over experiments” value (HRV14; mock-transfected 0-4%) was 6-43%. The “Percent of ICAM-1 expressing COS cells that bound to LFA-1, mean” value (LFA-1) was 33%, the “Percent of ICAM-1 expressing COS cells that bound to LFA-1, range over experiments” value (LFA-1; mock-transfected 0-1%) was 11-63% and the “% of Cells Expressing ICAM-1 that Bind LFA-1 in the Presence of RR1/1” value (LFA-1; transfected Cos cells, purified LFA-1 on plastic) was 0%.

From patent US7354588B1, “Functional derivatives of ICAM-1 with altered ability to bind LFA-1 or HRV” (Dana Farber Cancer Institute, priority 1987, dated 2008)
